Biological target: T1, GRK2 (Homo sapiens, UniProt P25098)
T1 sequence (P25098 1-689): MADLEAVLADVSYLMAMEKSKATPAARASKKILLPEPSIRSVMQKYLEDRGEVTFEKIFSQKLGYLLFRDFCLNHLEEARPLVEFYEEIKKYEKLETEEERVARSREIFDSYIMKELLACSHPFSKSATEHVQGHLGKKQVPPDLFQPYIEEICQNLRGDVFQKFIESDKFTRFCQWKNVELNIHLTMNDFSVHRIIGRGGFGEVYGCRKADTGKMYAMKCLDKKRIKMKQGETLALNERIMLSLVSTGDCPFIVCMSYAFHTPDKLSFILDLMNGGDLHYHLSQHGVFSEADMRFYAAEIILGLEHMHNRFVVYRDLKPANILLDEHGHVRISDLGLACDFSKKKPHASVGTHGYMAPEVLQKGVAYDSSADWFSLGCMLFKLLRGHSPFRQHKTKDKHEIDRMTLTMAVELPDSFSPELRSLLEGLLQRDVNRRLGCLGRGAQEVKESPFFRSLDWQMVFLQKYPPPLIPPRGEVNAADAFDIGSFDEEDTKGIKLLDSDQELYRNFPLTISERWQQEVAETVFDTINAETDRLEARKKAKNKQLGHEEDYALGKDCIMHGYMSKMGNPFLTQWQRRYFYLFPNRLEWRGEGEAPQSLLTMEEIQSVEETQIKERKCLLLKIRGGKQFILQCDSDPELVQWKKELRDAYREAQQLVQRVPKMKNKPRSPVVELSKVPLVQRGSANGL
Experiment: hGRK2 LANCE Ultra In Vitro Assay
Format: biochemical
Settings: hGRK2 LANCE Ultra Assay IC50, 10 nM GRK2; ATP 30 or 600 μM (not stated which)
Procedure: G-protein coupled receptor kinases (GR Kinases) desensitize activated G-protein coupled receptors (GPCRs), by phosphorylation of cytoplasmic loops or carboxyl-terminal tails of GPCRs. GRK2 is one of the 6 different GR kinases and is implicated in heart failure and diabetes.
This assay is sensitive and requires as low as 10 nM enzyme, in a total volume of 10 μL. In addition, the ATP concentration can be varied over a broad range, without interfering with the assay or changing the assay condition. […] Testing inhibitors routinely at both high and low ATP concentrations also enables identification of potential non-ATP competitive inhibitors.
Paroxetine was used as the reference compound in this assay.
Test compounds were dissolved in DMSO at 1 mM and were 3-fold serial diluted. The compound DMSO solutions were then added (100 nL) into a plate well using an acoustic dispenser. To each well was then added 20 nM GRK2 (5 μL) in assay buffer (20 mM HEPES, pH 7.5, 10 mM MgCl2, 0.001% Tween-20®). The plate was sealed and centrifuged at 1000 rpm for 1 min. The plate and wells containing a mixture of GRK2 and test compound were incubated at ambient temperature for 30 min (prior to initializing the enzymatic reaction).
Enzyme reactions were initiated by the addition of 4.9 μL Substrates/Eu-Ab mix to each well. […] Final concentrations of reagents in the assays were as follows: 20 mM HEPES, pH 7.5; 10 mM MgCl2; 0.001% Tween-2® (w/v), 30 or 600 μM ATP; 200 nM ULight-peptide; 4 nM Eu-Ab; 10 nM GRK2; and 1% DMSO.
The plates were sealed and centrifuged at 1000 rpm for 1 min. For reactions at low ATP concentration (30 μM), reaction mixtures were incubated at ambient temperature for 120 min. For reactions at high ATP concentration (600 μM), reaction mixtures were incubated at ambient temperature for 60 min.
The enzyme reactions were quenched by addition of 10 μL of 12 mM EDTA in 1× LANCE detection solution to each well. The plates were then incubated at ambient temperature for 30 min.
The raw HTRF data were converted to % active as follows:
% active=(sample−NC)/(PC−NC)*100
where NC is the mean of negative control (reactions without GRK2), and PC is the mean of positive control (reactions with GRK2 but without inhibitor). IC50 values were determined from a 4-parameter fit, using the following equation:
Y=Bottom+(Top−Bottom)/(1+10^(Log IC50-X)*Hill slope)),
where X=log10 of the compound concentration.

Q: For `C#CCNC(=O)c1cccc(Cn2ncc3ccc(-c4cn[nH]c4)cc3c2=O)c1` [Compound 8, 3-[[1-Oxo-7-(1H-pyrazol-4-yl)phthalazin-2-yl]methyl]-N-prop-2-ynyl-benzamide], which IC50 is on record?
A: 0.01 µM

Q: With `COc1cccc(Cn2ncc3ccc(-c4cn[nH]c4)c(F)c3c2=O)c1` [Compound 9, 8-Fluoro-2-[(3-methoxyphenyl)methyl]-7-(1H-pyrazol-4-yl)phthalazin-1-one] as the compound, how does the IC50 read?
A: 0.011 µM

Q: For `COc1cccc(Cn2ncc3ccc(-c4cn[nH]c4)c(C#N)c3c2=O)c1` [Compound 10, 3-[(3-Methoxyphenyl)methyl]-4-oxo-6-(1H-pyrazol-4-yl)phthalazine-5-carbonitrile], which IC50 is on record?
A: 0.011 µM

Q: For `CC(C)NC(=O)c1cc(Cn2ncc3ccc(-c4cn[nH]c4)cc3c2=O)ccc1F` [Compound 11, 2-Fluoro-N-isopropyl-5-[[1-oxo-7-(1H-pyrazol-4-yl)phthalazin-2-yl]methyl]benzamide], which IC50 is on record?
A: 0.012 µM

Q: With `CN(C)C(=O)COc1cccc(Cn2ncc3ccc(-c4cn[nH]c4)cc3c2=O)c1` [Compound 12, N,N-Dimethyl-2-[3-[[1-oxo-7-(1H-pyrazol-4-yl)phthalazin-2-yl]methyl]phenoxy]acetamide] as the compound, how does the IC50 read?
A: 0.013 µM

Q: How did the IC50 turn out when `O=C(NC1CC1)c1cc(Cn2ncc3ccc(-c4cn[nH]c4)cc3c2=O)ccc1F` [Compound 13, N-Cyclopropyl-2-fluoro-5-[[1-oxo-7-(1H-pyrazol-4-yl)phthalazin-2-yl]methyl]benzamide] was run?
A: 0.018 µM

Q: For `C#CCOc1cccc(Cn2ncc3ccc(-c4cn[nH]c4)c(F)c3c2=O)c1` [Compound 14, 8-Fluoro-2-[(3-prop-2-ynoxyphenyl)methyl]-7-(1H-pyrazol-4-yl)phthalazin-1-one], which IC50 is on record?
A: 0.025 µM

Q: For `COc1cccc(C(CO)n2ncc3ccc(-c4cn[nH]c4)cc3c2=O)c1` (stereo not drawn) [Compound 15, 2-[2-Hydroxy-1-(3-methoxyphenyl)ethyl]-7-(1H-pyrazol-4-yl)phthalazin-1-one], which IC50 is on record?
A: 0.033 µM

Q: Which IC50 does the source give for `COc1cccc(C(C(=O)O)n2ncc3ccc(-c4cn[nH]c4)cc3c2=O)c1` (stereo not drawn) [Compound 18, 2-(3-Methoxyphenyl)-2-[1-oxo-7-(1H-pyrazol-4-yl)phthalazin-2-yl]acetic acid] here?
A: > 20 µM

Source: patent US20220242850A1, “PHTHALAZIN-1-ONE DERIVATIVES USEFUL AS GRK2 INHIBITORS” (Janssen Pharmaceutica NV, priority 2019, published 2022)
